Where a SMILES comes first, the peptide text is derived from it. Bridges are numbered along the chain shown (N, C = ends). [ ]: non-standard residue; d: D form. The star is where a group is joined. Bip(3'-COOH) = N[C@@H](Cc1ccc(-c2cccc(C(=O)O)c2)cc1)C(=O)O; Bip(4'-COOH) = N[C@@H](Cc1ccc(-c2ccc(C(=O)O)cc2)cc1)C(=O)O; Phe(3-CF3) = N[C@@H](Cc1cccc(C(F)(F)F)c1)C(=O)O; Phe(4-COOH) = N[C@@H](Cc1ccc(C(=O)O)cc1)C(=O)O; Asp(3,3-Me2) = CC(C)(C(=O)O)[C@H](N)C(=O)O; Bip = N[C@@H](Cc1ccc(-c2ccccc2)cc1)C(=O)O; Phe(3-OMe) = COc1cccc(C[C@H](N)C(=O)O)c1; Phe(3-Me) = Cc1cccc(C[C@H](N)C(=O)O)c1; Val(3-OH) = CC(C)(O)[C@H](N)C(=O)O; hPhe = N[C@@H](CCc1ccccc1)C(=O)O; 4Pal = N[C@@H](Cc1ccncc1)C(=O)O; Cha = N[C@@H](CC1CCCCC1)C(=O)O; Cit = NC(=O)NCCC[C@H](N)C(=O)O; hSer = N[C@@H](CCO)C(=O)O; Carboxymethyl = O=C(O)C*; Orn = NCCC[C@H](N)C(=O)O; Pra = C#CC[C@H](N)C(=O)O; Dab = NCC[C@H](N)C(=O)O; Nva = CCC[C@H](N)C(=O)O; Dap = NC[C@H](N)C(=O)O; Ac3c = NC1(C(=O)O)CC1; NHCH2CH2OMe = COCCN*

The target of the assay is T1, human PD-1 / PD-L1-Ig binding on Jurkat cell line over-expressing human PD-1 (Jurkat-PD-1) (Homo sapiens, UniProt Q15116).
T1 construct: expressed in transfected cells; host or cells: Jurkat
T1 sequence (Q15116 25-288): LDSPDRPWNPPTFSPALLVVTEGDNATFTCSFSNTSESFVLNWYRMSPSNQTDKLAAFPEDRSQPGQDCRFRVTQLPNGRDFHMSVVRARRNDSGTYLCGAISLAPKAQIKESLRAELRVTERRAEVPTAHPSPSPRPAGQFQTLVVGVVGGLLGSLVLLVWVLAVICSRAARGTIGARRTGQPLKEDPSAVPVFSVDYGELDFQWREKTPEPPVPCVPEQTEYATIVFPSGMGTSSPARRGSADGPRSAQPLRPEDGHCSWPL
The assay is described as follows: Jurkat-PD-1 Cell Binding High-Content Screening Assay (CBA). Format: cell-based. The conditions noted are these: Jurkat-PD-1 cells, PE-labeled PD-L1-Ig 20 nM final; read-out: Jurkat HPD1_PDL1 IC50. In outline: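 Jurkat cells over-expressing human PD-1, in DMEM/10% FCS, pre-incubated with compound 2 h at 37° C. PE-labeled human PD-L1-Ig (20 nM final) added for 1 h; cells fixed in paraformaldehyde with Hoechst 33342 nuclear stain, washed, and bound fluorescence quantified by high-content imaging.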
As a reminder, the IC50 is the concentration that inhibits the measured activity by half. Regarding `COCCNC(=O)[C@H](CCN)NC(=O)[C@@H]1CSCC(=O)N[C@@H]([C@@H](C)O)C(=O)N[C@@H](Cc2ccc(C(=O)O)cc2)C(=O)N[C@@H](CC(=O)O)C(=O)N[C@@H](Cc2cccc(C)c2)C(=O)N[C@@H](Cc2ccc(OCC(=O)O)cc2)C(=O)N[C@@H](Cc2ccc(-c3ccccc3)cc2)C(=O)N[C@@H](Cc2ccc(OCC(=O)O)cc2)C(=O)N[C@@H](CCCN)C(=O)N[C@H](CC(C)C)C(=O)N[C@@H](CCN)C(=O)N[C@@H](CC2CCCCC2)C(=O)N[C@@H](C(C)(C)O)C(=O)N[C@@H](CO)C(=O)N1` [Compound 2077] ({CH2CO}-T[Phe(4-COOH)]D[Phe(3-Me)]Y(Carboxymethyl)[Bip]Y(Carboxymethyl)[Orn][dL][Dab][Cha][Val(3-OH)]SC[Dab]-NHCH2CH2OMe; thioether N-14), the IC50 is 7.3 nM.
The result for `COC[C@@H]1NC(=O)CSC[C@@H](C(=O)N[C@@H](CCN)C(N)=O)NC(=O)[C@H](CO)NC(=O)[C@H](C(C)(C)O)NC(=O)[C@H](CC2CCCCC2)NC(=O)[C@H](CCN)NC(=O)[C@@H](CC(C)C)NC(=O)[C@H](CCCN)NC(=O)[C@H](Cc2ccc(OCC(=O)O)cc2)NC(=O)[C@H](Cc2ccc(-c3ccccc3)cc2)NC(=O)[C@H](Cc2ccc(OCC(=O)O)cc2)NC(=O)[C@H](Cc2cccc(C)c2)NC(=O)[C@H](CC(=O)O)NC(=O)[C@H](Cc2ccc(C(=O)O)cc2)NC1=O` [Compound 2078] ({CH2CO}-S(Me)[Phe(4-COOH)]D[Phe(3-Me)]Y(Carboxymethyl)[Bip]Y(Carboxymethyl)[Orn][dL][Dab][Cha][Val(3-OH)]SC[Dab]-NH2; thioether N-14) reads 4.9 nM; that for `COCC[C@@H]1NC(=O)CSC[C@@H](C(=O)N[C@@H](CCN)C(N)=O)NC(=O)[C@H](CO)NC(=O)[C@H](C(C)(C)O)NC(=O)[C@H](CC2CCCCC2)NC(=O)[C@H](CCN)NC(=O)[C@@H](CC(C)C)NC(=O)[C@H](CCCN)NC(=O)[C@H](Cc2ccc(OCC(=O)O)cc2)NC(=O)[C@H](Cc2ccc(-c3ccccc3)cc2)NC(=O)[C@H](Cc2ccc(OCC(=O)O)cc2)NC(=O)[C@H](Cc2cccc(C)c2)NC(=O)[C@H](CC(=O)O)NC(=O)[C@H](Cc2ccc(C(=O)O)cc2)NC1=O` [Compound 2079] ({CH2CO}-[hSer](Me)[Phe(4-COOH)]D[Phe(3-Me)]Y(Carboxymethyl)[Bip]Y(Carboxymethyl)[Orn][dL][Dab][Cha][Val(3-OH)]SC[Dab]-NH2; thioether N-14), 6.3 nM; that for `CCC[C@@H]1NC(=O)CSC[C@@H](C(=O)N[C@@H](CCN)C(N)=O)NC(=O)[C@H](CO)NC(=O)[C@H](C(C)(C)O)NC(=O)[C@H](CC2CCCCC2)NC(=O)[C@H](CCN)NC(=O)[C@@H](CC(C)C)NC(=O)[C@H](CCCN)NC(=O)[C@H](Cc2ccc(OCC(=O)O)cc2)NC(=O)[C@H](Cc2ccc(-c3ccccc3)cc2)NC(=O)[C@H](Cc2ccc(OCC(=O)O)cc2)NC(=O)[C@H](Cc2cccc(C)c2)NC(=O)[C@H](CC(=O)O)NC(=O)[C@H](Cc2ccc(C(=O)O)cc2)NC1=O` [Compound 2080] ({CH2CO}-[Nva][Phe(4-COOH)]D[Phe(3-Me)]Y(Carboxymethyl)[Bip]Y(Carboxymethyl)[Orn][dL][Dab][Cha][Val(3-OH)]SC[Dab]-NH2; thioether N-14), 4.2 nM.
For the molecule `Cc1cccc(C[C@@H]2NC(=O)[C@H](CC(=O)O)NC(=O)[C@H](Cc3ccc(C(=O)O)cc3)NC(=O)[C@H](CCc3ccccc3)NC(=O)CSC[C@@H](C(=O)N[C@@H](CCN)C(N)=O)NC(=O)[C@H](CO)NC(=O)[C@H](C(C)(C)O)NC(=O)[C@H](CC3CCCCC3)NC(=O)[C@H](CCN)NC(=O)[C@@H](CC(C)C)NC(=O)[C@H](CCCN)NC(=O)[C@H](Cc3ccc(OCC(=O)O)cc3)NC(=O)[C@H](Cc3ccc(-c4ccccc4)cc3)NC(=O)[C@H](Cc3ccc(OCC(=O)O)cc3)NC2=O)c1` [Compound 2081] ({CH2CO}-[hPhe][Phe(4-COOH)]D[Phe(3-Me)]Y(Carboxymethyl)[Bip]Y(Carboxymethyl)[Orn][dL][Dab][Cha][Val(3-OH)]SC[Dab]-NH2; thioether N-14), the IC50 stood at 111 nM.
The result for `Cc1cccc(C[C@@H]2NC(=O)[C@H](CC(=O)O)NC(=O)[C@H](Cc3ccc(OCC(=O)O)cc3)NC(=O)[C@H](Cc3ccncc3)NC(=O)CSC[C@@H](C(=O)N[C@@H](CCN)C(N)=O)NC(=O)[C@H](CO)NC(=O)[C@H](C(C)(C)O)NC(=O)[C@H](CC3CCCCC3)NC(=O)[C@H](CCN)NC(=O)[C@@H](CC(C)C)NC(=O)C3(CC3)NC(=O)[C@H](Cc3ccc(OCC(=O)O)cc3)NC(=O)[C@H](Cc3ccc(-c4ccccc4)cc3)NC(=O)[C@H](Cc3ccc(OCC(=O)O)cc3)NC2=O)c1` [Compound 2082] ({CH2CO}-[4Pal]Y(Carboxymethyl)D[Phe(3-Me)]Y(Carboxymethyl)[Bip]Y(Carboxymethyl)[Ac3c][dL][Dab][Cha][Val(3-OH)]SC[Dab]-NH2; thioether N-14) reads 111 nM.
In the case of `Cc1cccc(C[C@@H]2NC(=O)[C@H](CC(=O)O)NC(=O)[C@H](Cc3ccc(OCC(=O)O)cc3)NC(=O)[C@H](Cc3ccncc3)NC(=O)CSC[C@@H](C(=O)N[C@@H](CCN)C(N)=O)NC(=O)[C@H](CO)NC(=O)[C@H](C(C)(C)O)NC(=O)[C@H](CC3CCCCC3)NC(=O)[C@H](CCN)NC(=O)[C@@H](CC(C)C)NC(=O)C(C3CCNCC3)NC(=O)[C@H](Cc3ccc(OCC(=O)O)cc3)NC(=O)[C@H](Cc3ccc(-c4ccccc4)cc3)NC(=O)[C@H](Cc3ccc(OCC(=O)O)cc3)NC2=O)c1` (stereo partly shown) [Compound 2083], the IC50 was determined as 912 nM.
The result for `Cc1cccc(C[C@@H]2NC(=O)[C@H](CC(=O)O)NC(=O)[C@H](Cc3ccc(OCC(=O)O)cc3)NC(=O)[C@H](Cc3ccncc3)NC(=O)CSC[C@@H](C(=O)N[C@@H](CCN)C(N)=O)NC(=O)[C@H](C(C)(C)C(=O)O)NC(=O)[C@H](C(C)C)NC(=O)[C@H](CC3CCCCC3)NC(=O)[C@H](CCN)NC(=O)[C@@H](CC(C)C)NC(=O)[C@H](CCCN)NC(=O)[C@H](Cc3ccc(OCC(=O)O)cc3)NC(=O)[C@H](Cc3ccc(-c4ccccc4)cc3)NC(=O)[C@H](Cc3ccc(OCC(=O)O)cc3)NC2=O)c1` [Compound 2085] ({CH2CO}-[4Pal]Y(Carboxymethyl)D[Phe(3-Me)]Y(Carboxymethyl)[Bip]Y(Carboxymethyl)[Orn][dL][Dab][Cha]V[Asp(3,3-Me2)]C[Dab]-NH2; thioether N-14) reads 70 nM; that for `C#CC[C@H](NC(=O)[C@H](CCN)NC(=O)[C@@H]1CSCC(=O)N[C@@H](CCN)C(=O)N[C@@H](Cc2ccc(C(=O)O)cc2)C(=O)N[C@@H](CC(=O)O)C(=O)N[C@@H](Cc2cccc(C)c2)C(=O)N[C@@H](Cc2ccc(C(=O)O)cc2)C(=O)N[C@@H](Cc2ccc(-c3ccccc3)cc2)C(=O)N[C@@H](Cc2ccc(C(=O)O)cc2)C(=O)N[C@@H](CCCN)C(=O)N[C@H](CC(C)C)C(=O)N[C@@H](CCN)C(=O)N[C@@H](CC2CCCCC2)C(=O)N[C@@H](C(C)(C)O)C(=O)N[C@@H](CO)C(=O)N1)C(N)=O` [Compound 2088] ({CH2CO}-[Dab][Phe(4-COOH)]D[Phe(3-Me)][Phe(4-COOH)][Bip][Phe(4-COOH)][Orn][dL][Dab][Cha][Val(3-OH)]SC[Dab][Pra]-NH2; thioether N-14), 4.4 nM; that for `CC(C)C[C@H]1NC(=O)[C@H](CCCN)NC(=O)[C@H](CCCNC(N)=O)NC(=O)[C@H](Cc2ccc(-c3ccccc3)cc2)NC(=O)[C@H](C(C)C)NC(=O)[C@H](Cc2c[nH]c3ccccc23)NC(=O)[C@H](CC(=O)O)NC(=O)[C@H](Cc2ccc(-c3ccc(C(=O)O)cc3)cc2)NC(=O)[C@H](CN)NC(=O)CSC[C@@H](C(=O)N[C@@H](C)C(N)=O)NC(=O)[C@H]([C@@H](C)O)NC(=O)[C@H](C(C)C)NC(=O)[C@H](CC2CCCCC2)NC(=O)[C@H](CCN)NC1=O` [Compound 2089] ({CH2CO}-[Dap][Bip(4'-COOH)]DWV[Bip][Cit][Orn][dL][Dab][Cha]VTCA-NH2; thioether N-14), 8.3 nM.
The result for `CC(C)C[C@H]1NC(=O)[C@H](CCCN)NC(=O)[C@H](CCCNC(N)=O)NC(=O)[C@H](Cc2ccc(-c3ccccc3)cc2)NC(=O)[C@H](C(C)C)NC(=O)[C@H](Cc2c[nH]c3ccccc23)NC(=O)[C@H](CC(=O)O)NC(=O)[C@H](Cc2ccc(-c3cccc(C(=O)O)c3)cc2)NC(=O)[C@H](CN)NC(=O)CSC[C@@H](C(=O)N[C@@H](C)C(N)=O)NC(=O)[C@H]([C@@H](C)O)NC(=O)[C@H](C(C)C)NC(=O)[C@H](CC2CCCCC2)NC(=O)[C@H](CCN)NC1=O` [Compound 2090] ({CH2CO}-[Dap][Bip(3'-COOH)]DWV[Bip][Cit][Orn][dL][Dab][Cha]VTCA-NH2; thioether N-14) reads 7.8 nM.
As to `COc1cccc(C[C@@H]2NC(=O)[C@H](CN)NC(=O)CSC[C@@H](C(=O)N[C@@H](C)C(N)=O)NC(=O)[C@H]([C@@H](C)O)NC(=O)[C@H](C(C)C)NC(=O)[C@H](CC3CCCCC3)NC(=O)[C@H](CCN)NC(=O)[C@@H](CC(C)C)NC(=O)[C@H](CCCN)NC(=O)[C@H](CCCNC(N)=O)NC(=O)[C@H](Cc3ccc(-c4ccccc4)cc3)NC(=O)[C@H](C(C)C)NC(=O)[C@H](Cc3c[nH]c4ccccc34)NC(=O)[C@H](CC(=O)O)NC2=O)c1` [Compound 2091] ({CH2CO}-[Dap][Phe(3-OMe)]DWV[Bip][Cit][Orn][dL][Dab][Cha]VTCA-NH2; thioether N-14), the IC50 was 24.3 nM.
Take `CC(C)C[C@H]1NC(=O)[C@H](CCCN)NC(=O)[C@H](CCCNC(N)=O)NC(=O)[C@H](Cc2ccc(-c3ccccc3)cc2)NC(=O)[C@H](C(C)C)NC(=O)[C@H](Cc2c[nH]c3ccccc23)NC(=O)[C@H](CC(=O)O)NC(=O)[C@H](Cc2cccc(C(F)(F)F)c2)NC(=O)[C@H](CN)NC(=O)CSC[C@@H](C(=O)N[C@@H](C)C(N)=O)NC(=O)[C@H]([C@@H](C)O)NC(=O)[C@H](C(C)C)NC(=O)[C@H](CC2CCCCC2)NC(=O)[C@H](CCN)NC1=O` [Compound 2092] ({CH2CO}-[Dap][Phe(3-CF3)]DWV[Bip][Cit][Orn][dL][Dab][Cha]VTCA-NH2; thioether N-14): the IC50 is 43.1 nM.

The values above are taken from patent US20250163104A1, “MACROCYCLIC IMMUNOMODULATORS” (priority 2021, published 2025).
